≈ marks a conversion by molar mass, not a printed value. Read-outs that look alike come from different tables or passages of the source.
Tests used:
[1] = test system: HIV-1 (MT-2 cells); assay: Anti-HIV MTT assay, inhibition of HIV-induced cell killing, MT-2 cells; assay type: cell-based, HIV-1 isolates IIIB and/or RF; conditions: Human immunodeficiency virus 1, MT2, 144 h, read-out: Viral MT-2
Text: (§1) SRI has an established program for the primary antiviral analysis of compounds in microtiter assays which measure the ability of a selected compound to inhibit HIV-induced cell killing. This assay involves the conversion of the tetrazolium dye MTT to a colored formazan product by mitochondrial enzymes in metabolically active cells. This assay system is presently used at SRI to screen over 30,000 compounds per year. Briefly, the assay involves the infection of CEM or MT2 cells in round bottom 96-well plates. The compound of interest is added just prior to infection. Following 6 days of incubation at 37° C. the plates are stained with MTT. The results of the assay are quantitated spectrophotometrically on a Molecular Devices Vmax plate reader. The data is analyzed by linear regression utilizing an in-house software program to calculate antiviral activity. (IC25, IC50, IC95) and toxicity (TC25, TC50, TC95) as well as other values.
(§2) Primary antiviral assays are routinely performed in CEM or MT-2 cells.
(§3) Drugs will be solubilized in the appropriate vehicle such as distilled water or DMSO if necessary. Latex gloves, lab coats and masks are used during all phases of the handling process to prevent exposure to potentially harmful agents. The drug is prepared at the appropriate concentration and stored at -20° C. until used by the screening laboratory. The first dilution of each compound is made in a dilution tube with medium to yield a concentration two-fold that of the highest test concentration. Sterile titer tubes are then used to make serial one half-log dilutions of each compound. Following drug dilution, the diluted compound is added to the appropriate well of a 96-well microtiter plate. Up to 12 dilutions can be assayed conveniently in triplicate on a single plate with all appropriate controls including cell control, virus control, toxicity control, drug color control, medium control and plastic (background) control. When testing includes only six dilutions, two drugs can be assayed on a single microtiter plate. The drugs are added to the plate in a final volume of 100 microliters.
(§4) During the time the drug dilutions are prepared, cells are washed and counted. Viability is monitored by trypan blue dye exclusion and assays are not performed if the viability falls below 90%. Cells are maintained in an exponential growth phase and are split 1:2 on the day prior to assay to assure exponential growth rate.
(§5) For the primary screen, the cell lines utilized are CEM and MT-2. Unless otherwise indicated, the medium used is RPMI 1640 with 10% heat-inactivated fetal calf serum (FBS), glutamine and antibiotics.
(§6) Cells are propagated at 37° C. in an atmosphere of 5% CO2 in air. The virus employed for this work is HIV-1 isolates IIIB and/or RF, which are prepared by an acute infection process.
(§7) Briefly, virus-infected cells are pelleted on a daily basis beginning at three days post-infection until the virus has killed all of the cells in the culture. Reverse transcriptase activity and p24 ELISA are used to identify pools with the greatest amount of virus.
(§8) These 24-hour harvests are pooled, filtered and frozen at -90° C. Prior to use in the assay, the infectious pool of virus is titered on all available cell lines in order to determine the amount of virus required in the antiviral assay.
(§9) In general, pools produced by the acute infection method require the addition of one microliter of infectious virus per well resulting in the screening of drugs at a multiplicity of infection of 0.01. In this manner enough virus is prepared and frozen to complete over one thousand microtiter plates, allowing the testing of up to two thousand compounds from a single stock of infectious virus. The use of a single stock of virus for a long period of testing has very favorable effects on the repeatability of the assay systems.
(§10) Virus infection of the CEM and MT-2 cells for the antiviral assay is carried out in a bulk infection process. […]

[2] = molecular target: T1, HIV-1 protease (Human immunodeficiency virus type 1 group M subtype B, UniProt P04585); assay: biochemical; assay type: biochemical
T1 construct: purified HIV-1 protease
Method: 1. Proteolytic activity of purified HIV-1 protease was routinely measured using the chromogenic assay developed by Richards et al. (J. Biol. Chem. 265: 7733 (1990)). Synthetic peptide His-Lys-Ala-Arg-Val-Leu-Phe (pNO2)-Glu-Ala-Nle-Ser-NH2 (American Peptide Company) was used as the substrate.
2. The assay was carried out in 0.5M NaCl, 50 mM MES pH 5.6, 2% DMSO (dimethylsulfoxide) at 37° C. Cleavage of the scissile bond between leucine and paranitro-phenylalanine (Phe(pNO2)) was assayed by spectrophotometric monitoring of the decrease in absorbance at 305 nm. Initial velocity was determined as the rate of decline of absorbance during the first 100 seconds of reaction.
3. […] Between 15-25 concentrations of inhibitor were added and velocity of reaction was measured at each of the concentrations, as described above.
4. Inhibition constants were calculated using the method of Jackson et al. (Adv. in Enzyme Regulation 22: 187 (1984)).

[3] = test system: HIV-1 (CEM cells); assay: Anti-HIV MTT assay, inhibition of HIV-induced cell killing, CEM cells; assay type: cell-based, HIV-1 isolates IIIB and/or RF; conditions: Human immunodeficiency virus 1, CCRF-CEM, 144 h, CEM cell line (first position), 6 days, 37° C., read-out: Viral CEM
Text: as §1, §2, §3, §4, §5, §6, §7, §8, §9, §10

[4] = test system: HIV; assay: antiviral assay (enantiomer comparison, cell line not given); assay type: cell-based; conditions: enantiomers compared with each other
[5] = MT-2 cells (second position), 6 days, 37° C., MTT
[6] = 0.5M NaCl, 50 mM MES pH 5.6, 2% DMSO, 37° C., 200 μM substrate

Row | SMILES | IC50 [2, 6] | Ki [2, 6] | Ki [2] | IC50 [2] | IC50 [1, 5] | IC50 [3] | IC50 [1] | activity in the antiviral assay [4]
1 | CCC1(N(CCO)C(=O)c2ccccc2CCC(O)Cc2ccccc2C(=O)N(CCC(O)CO)C(C)(C)c2ccccc2)CCCC1 (centres unmarked) [Example 100] | 110 nM | 7 nM | – | – | 1.94 µg/mL (≈ 2.94 µM) | 0.48 µg/mL (≈ 0.729 µM) | – | –
2 | CCC1(N(CCO)C(=O)c2ccccc2CCC(O)Cc2ccc(C)cc2C(=O)N(CC2COC(C)(C)OC2)C(C)(C)c2ccccc2)CCCC1 (centres unmarked) [Example 102] | 133 nM | 2.3 nM | – | – | 0.47 µg/mL (≈ 0.659 µM) | 0.42 µg/mL (≈ 0.589 µM) | – | –
3 | CCC1(N(CCO)C(=O)c2ccccc2CCC(O)Cc2ccc(C)cc2C(=O)N(CC(CO)CO)C(C)(C)c2ccccc2)CCCC1 (centres unmarked) [Example 103] | 106 nM | – | 10 nM | – | 1.15 µg/mL (≈ 1.71 µM) | 0.64 µg/mL (≈ 0.951 µM) | – | –
4 | CCC1(N(CCO)C(=O)c2ccccc2CCC(O)Cc2ccc(C)cc2C(=O)N(CCC(O)CO)C(C)(C)c2ccccc2)CCCC1 (centres unmarked) [Example 104] | – | – | 9.6 nM | 81 nM | 0.55 µg/mL (≈ 0.817 µM) | 0.58 µg/mL (≈ 0.862 µM) | – | –
5 | CCC1(N(CCO)C(=O)c2ccccc2CCC(O)Cc2ccc(C)cc2C(=O)N(CCO)C(C)(C)c2ccc(OCCN3CCOCC3)cc2)CCCC1 (centres unmarked) [Example 108] | 108 nM | 9.8 nM | – | – | 0.56 µg/mL (≈ 0.739 µM) | 0.64 µg/mL (≈ 0.844 µM) | – | –
6 | CCCC(CC)(CC)N(CCO)C(=O)c1cc(C)ccc1CC(O)CCc1ccccc1C(=O)N(CCO)C1(CC)CCCC1 (centres unmarked) [Example 109] | 59 nM | 13.6 nM | – | – | – | 0.79 µg/mL (≈ 1.27 µM) | 0.59 µg/mL (≈ 0.947 µM) | –
7 | CCC1(N(CCO)C(=O)c2ccccc2CCC(O)Cc2ccc(C)cc2C(=O)N(CCOC(=O)[C@@H](N)C(C)C)C(C)(C)c2ccccc2)CCCC1 (some centres unmarked) [Example 114] | 398 nM | 230 nM | – | – | 1.75 µg/mL (≈ 2.4 µM) | 2.11 µg/mL (≈ 2.9 µM) | – | –
8 | CCC1(N(CCO)C(=O)c2ccccc2CCC(O)Cc2ccc(C)cc2C(=O)N(CC2CCCO2)C(C)(C)c2ccccc2)CCCC1 (centres unmarked) [Example 115] | 290 nM | 17 nM | – | – | 6.34 µg/mL (≈ 9.48 µM) | 4.16 µg/mL (≈ 6.22 µM) | – | –
9 | CCC1(N(CCO)C(=O)c2ccccc2CC[C@@H](O)Cc2ccc(C)cc2C(=O)N(CCO)C(C)(C)c2ccccc2)CCCC1 [Example 116a] | – | – | – | – | – | – | – | more active
10 | CCC1(N(CCO)C(=O)c2ccccc2CC[C@H](O)Cc2ccc(C)cc2C(=O)N(CCO)C(C)(C)c2ccccc2)CCCC1 [Example 116b] | – | – | – | – | – | – | – | less active

Now from value to molecule, other results behind:

Row | IC50 [2, 6] | Ki [2, 6] | Ki [2] | IC50 [2] | SMILES | IC50 [1, 5] | IC50 [3] | IC50 [1] | activity in the antiviral assay [4]
11 | 102 nM | 4 nM | – | – | CCC1(N(CCO)C(=O)c2ccccc2CCC(O)Cc2ccc(C)cc2C(=O)N(CCO)C(CC)(CC)c2ccccc2)CCCC1 (centres unmarked) [Example 101] | 1.67 µg/mL (≈ 2.54 µM) | 4.16 µg/mL (≈ 6.33 µM) | – | –
12 | 86 nM | 1 nM | – | – | CCC1(N(CCO)C(=O)c2ccccc2CCC(O)Cc2ccc(Cl)cc2C(=O)N(CCO)C(C)(C)c2ccccc2)CCCC1 (centres unmarked) [Example 105] | 0.49 µg/mL (≈ 0.755 µM) | 0.47 µg/mL (≈ 0.724 µM) | – | –
13 | 67 nM | 3.9 nM | – | – | CCC1(N(CC2COC(C)(C)OC2)C(=O)c2ccccc2CCC(O)Cc2ccc(C)cc2C(=O)N(CC2COC(C)(C)OC2)C(C)(C)c2ccccc2)CCCC1 (centres unmarked) [Example 106] | 1.7 µg/mL (≈ 2.13 µM) | 3.91 µg/mL (≈ 4.91 µM) | – | –
14 | 92 nM | 32 nM | – | – | CCC1(N(CC(CO)CO)C(=O)c2ccccc2CCC(O)Cc2ccc(C)cc2C(=O)N(CC(CO)CO)C(C)(C)c2ccccc2)CCCC1 (centres unmarked) [Example 107] | 1.34 µg/mL (≈ 1.87 µM) | 1.44 µg/mL (≈ 2.01 µM) | – | –
15 | 68 nM | 5.4 nM | – | – | CCC1(N(CCOC(C)=O)C(=O)c2ccccc2CCC(O)Cc2ccc(C)cc2C(=O)N(CCOC(C)=O)C(C)(C)c2ccccc2)CCCC1 (centres unmarked) [Example 110] | 1.72 µg/mL (≈ 2.41 µM) | 0.69 µg/mL (≈ 0.968 µM) | – | –
16 | 52 nM | 8 nM | – | – | CCC1(N(CCO)C(=O)c2ccccc2CCC(O)Cc2ccc(C)cc2C(=O)N(CCO)C(C)(C)c2ccc(OCc3ccc[n+]([O-])c3)cc2)CCCC1 (centres unmarked) [Example 111] | 1.81 µg/mL (≈ 2.41 µM) | 1.03 µg/mL (≈ 1.37 µM) | – | –
17 | 103 nM | 10 nM | – | – | CCC1(N(CCO)C(=O)c2ccccc2CCC(O)Cc2ccc(C)cc2C(=O)N(CCO)C(C)(C)c2ccc(OCCCN(CCO)CCO)cc2)CCCC1 (centres unmarked) [Example 113] | 1.58 µg/mL (≈ 2 µM) | 1.73 µg/mL (≈ 2.19 µM) | – | –
